Measurements from PubChem BioAssay AID2060903 (Molecular Pharmacology Branch, DTP, NCI, 2025).

Test system: 377384-186-R-J1-PDC complex spheroid viability
Assay: Anticancer human tumor 377384-186-R-J1-PDC patient-derived pancreatic carcinoma cell line growth inhibition [RAS]
Details: for IC50: curve of first compound; for viability, T/C: stronger effect = lower value
In short: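 Agents were tested in combination matrices in half-log decrements from a top concentration at or near clinical Cmax (10 microM if undetermined). Targets were multi-cell spheroids of tumour lines plus HUVEC and MSC stromal cells.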

[1] = second compound 0.000949 µM, first compound 0.0316 µM
[2] = second compound 0.000949 µM, first compound 0.1 µM
[3] = second compound 0.000949 µM, first compound 0.316 µM
[4] = second compound 0.000949 µM, first compound 1 µM
[5] = second compound 0.000949 µM, first compound 3.16 µM
[6] = second compound 0.000949 µM, first compound 10 µM
[7] = second compound 0.003 µM, first compound 0.0316 µM
[8] = second compound 0.003 µM, first compound 0.1 µM
[9] = second compound 0.003 µM, first compound 0.316 µM
[10] = second compound 0.003 µM, first compound 1 µM
[11] = second compound 0.003 µM, first compound 3.16 µM
[12] = second compound 0.003 µM, first compound 10 µM
[13] = second compound 0.00949 µM, first compound 0.0316 µM
[14] = second compound 0.00949 µM, first compound 0.1 µM
[15] = second compound 0.00949 µM, first compound 0.316 µM
[16] = second compound 0.00949 µM, first compound 1 µM
[17] = second compound 0.00949 µM, first compound 3.16 µM
[18] = second compound 0.00949 µM, first compound 10 µM
[19] = second compound 0.03 µM, first compound 0.0316 µM
[20] = second compound 0.03 µM, first compound 0.1 µM
[21] = second compound 0.03 µM, first compound 0.316 µM
[22] = second compound 0.03 µM, first compound 1 µM
[23] = second compound 0.03 µM, first compound 3.16 µM
[24] = second compound 0.03 µM, first compound 10 µM
[25] = second compound 0.0949 µM, first compound 0.0316 µM
[26] = second compound 0.0949 µM, first compound 0.1 µM
[27] = second compound 0.0949 µM, first compound 0.316 µM
[28] = second compound 0.0949 µM, first compound 1 µM
[29] = second compound 0.0949 µM, first compound 3.16 µM
[30] = second compound 0.0949 µM, first compound 10 µM
[31] = second compound 0.3 µM, first compound 0.0316 µM
[32] = second compound 0.3 µM, first compound 0.1 µM
[33] = second compound 0.3 µM, first compound 0.316 µM
[34] = second compound 0.3 µM, first compound 1 µM
[35] = second compound 0.3 µM, first compound 3.16 µM
[36] = second compound 0.3 µM, first compound 10 µM
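Further: spheroids exposed to compounds for seven days before readout.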

CC(C)NCC(C(=O)N1CCN(c2ncnc3c2C(C)CC3O)CC1)c1ccc(Cl)cc1 (stereo unspecified) + CCn1c(-c2cc(N3CCN(C)CC3)cnc2C(C)OC)c2c3cc(ccc31)-c1csc(n1)CC(NC(=O)C1CC1C)C(=O)N1CCCC(N1)C(=O)OCC(C)(C)C2
IC50 (second compound 0.000949 µM): 126 nM | IC50 (second compound 0.003 µM): < 31.6 nM | IC50 (second compound 0.00949 µM): < 31.6 nM | IC50 (second compound 0.03 µM): < 31.6 nM | IC50 (second compound 0.0949 µM): < 31.6 nM | IC50 (second compound 0.3 µM): < 31.6 nM | viability, T/C [1]: 60.4% | viability, T/C [2]: 54.6% | viability, T/C [3]: 38.6% | viability, T/C [4]: 34.1% | viability, T/C [5]: 34.1% | viability, T/C [6]: 19% | viability, T/C [7]: 19.6% | viability, T/C [8]: 21.2% | viability, T/C [9]: 17.9% | viability, T/C [10]: 16.4% | viability, T/C [11]: 12.7% | viability, T/C [12]: 8.24% | viability, T/C [13]: 5.67% | viability, T/C [14]: 5.95% | viability, T/C [15]: 5.17% | viability, T/C [16]: 7.15% | viability, T/C [17]: 6.27% | viability, T/C [18]: 3.27% | viability, T/C [19]: 3.25% | viability, T/C [20]: 2.3% | viability, T/C [21]: 2.13% | viability, T/C [22]: 1.68% | viability, T/C [23]: 1.07% | viability, T/C [24]: 0.92% | viability, T/C [25]: 1.84% | viability, T/C [26]: 1.86% | viability, T/C [27]: 1.46% | viability, T/C [28]: 1.22% | viability, T/C [29]: 0.74% | viability, T/C [30]: 0.17% | viability, T/C [31]: 2% | viability, T/C [32]: 2.02% | viability, T/C [33]: 1.61% | viability, T/C [34]: 0.77% | viability, T/C [35]: 0.64% | viability, T/C [36]: 0.3%

CC(C)n1nc(-c2ccc3oc(N)nc3c2)c2c(N)ncnc21 + CCn1c(-c2cc(N3CCN(C)CC3)cnc2C(C)OC)c2c3cc(ccc31)-c1csc(n1)CC(NC(=O)C1CC1C)C(=O)N1CCCC(N1)C(=O)OCC(C)(C)C2
IC50 (second compound 0.000949 µM): 0.989 nM | IC50 (second compound 0.003 µM): < 0.316 nM | IC50 (second compound 0.00949 µM): < 0.316 nM | IC50 (second compound 0.03 µM): < 0.316 nM | IC50 (second compound 0.0949 µM): < 0.316 nM | IC50 (second compound 0.3 µM): < 0.316 nM | viability, T/C (second compound 0.000949 µM, first compound 0.000316 µM): 48.6% | viability, T/C (second compound 0.000949 µM, first compound 0.001 µM): 57.8% | viability, T/C (second compound 0.000949 µM, first compound 0.00316 µM): 35.5% | viability, T/C (second compound 0.000949 µM, first compound 0.01 µM): 26.4% | viability, T/C [1]: 16.2% | viability, T/C [2]: 10.3% | viability, T/C (second compound 0.003 µM, first compound 0.000316 µM): 20.1% | viability, T/C (second compound 0.003 µM, first compound 0.001 µM): 24.1% | viability, T/C (second compound 0.003 µM, first compound 0.00316 µM): 17.6% | viability, T/C (second compound 0.003 µM, first compound 0.01 µM): 13.7% | viability, T/C [7]: 8.27% | viability, T/C [8]: 4.84% | viability, T/C (second compound 0.00949 µM, first compound 0.000316 µM): 4.46% | viability, T/C (second compound 0.00949 µM, first compound 0.001 µM): 4.86% | viability, T/C (second compound 0.00949 µM, first compound 0.00316 µM): 4.1% | viability, T/C (second compound 0.00949 µM, first compound 0.01 µM): 5.4% | viability, T/C [13]: 4.11% | viability, T/C [14]: 2.39% | viability, T/C (second compound 0.03 µM, first compound 0.000316 µM): 2.29% | viability, T/C (second compound 0.03 µM, first compound 0.001 µM): 2.17% | viability, T/C (second compound 0.03 µM, first compound 0.00316 µM): 2.37% | viability, T/C (second compound 0.03 µM, first compound 0.01 µM): 1.66% | viability, T/C [19]: 1.3% | viability, T/C [20]: 0.91% | viability, T/C (second compound 0.0949 µM, first compound 0.000316 µM): 1.81% | viability, T/C (second compound 0.0949 µM, first compound 0.001 µM): 2.1% | viability, T/C (second compound 0.0949 µM, first compound 0.00316 µM): 2.12% | viability, T/C (second compound 0.0949 µM, first compound 0.01 µM): 1.18% | viability, T/C [25]: 0.96% | viability, T/C [26]: 0.58% | viability, T/C (second compound 0.3 µM, first compound 0.000316 µM): 1.71% | viability, T/C (second compound 0.3 µM, first compound 0.001 µM): 1.54% | viability, T/C (second compound 0.3 µM, first compound 0.00316 µM): 1.69% | viability, T/C (second compound 0.3 µM, first compound 0.01 µM): 1.04% | viability, T/C [31]: 0.89% | viability, T/C [32]: 0.59%

C[C@@H](NC(=O)c1ncnc(N)c1Cl)c1ncc(C(=O)Nc2cc(C(F)(F)F)c(Cl)cn2)s1 + CCn1c(-c2cc(N3CCN(C)CC3)cnc2C(C)OC)c2c3cc(ccc31)-c1csc(n1)CC(NC(=O)C1CC1C)C(=O)N1CCCC(N1)C(=O)OCC(C)(C)C2
IC50 (second compound 0.000949 µM): > 10000 nM | IC50 (second compound 0.003 µM): < 31.6 nM | IC50 (second compound 0.00949 µM): < 31.6 nM | IC50 (second compound 0.03 µM): < 31.6 nM | IC50 (second compound 0.0949 µM): < 31.6 nM | IC50 (second compound 0.3 µM): < 31.6 nM | viability, T/C [1]: 60.5% | viability, T/C [2]: 68% | viability, T/C [3]: 62.4% | viability, T/C [4]: 69.9% | viability, T/C [5]: 65.2% | viability, T/C [6]: 49% | viability, T/C [7]: 39.1% | viability, T/C [8]: 36.5% | viability, T/C [9]: 34.7% | viability, T/C [10]: 40.3% | viability, T/C [11]: 29.3% | viability, T/C [12]: 19.9% | viability, T/C [13]: 8.23% | viability, T/C [14]: 12.1% | viability, T/C [15]: 12.7% | viability, T/C [16]: 11.6% | viability, T/C [17]: 14% | viability, T/C [18]: 11.2% | viability, T/C [19]: 2.09% | viability, T/C [20]: 2.73% | viability, T/C [21]: 3.94% | viability, T/C [22]: 4.72% | viability, T/C [23]: 3.74% | viability, T/C [24]: 2.97% | viability, T/C [25]: 2.41% | viability, T/C [26]: 2.22% | viability, T/C [27]: 2.96% | viability, T/C [28]: 3.02% | viability, T/C [29]: 2.41% | viability, T/C [30]: 1.87% | viability, T/C [31]: 1.66% | viability, T/C [32]: 2.36% | viability, T/C [33]: 2.7% | viability, T/C [34]: 2.88% | viability, T/C [35]: 2.27% | viability, T/C [36]: 2.12%
